Marks after values point to notes of the source that are not given here.
Tests used:
[1] = test system: NOSTZ diabetic rats; assay: Antidiabetic activity (glycaemia) in NOSTZ diabetic rats; format: in vivo, rat; details: repeated for 4 days, blood two hours after the fourth treatment
Protocol: Study of the Antidiabetic Activity in NOSTZ rats Effect/Dose of compound 15, in vivo, in the case of NOSTZ diabetic rats (Table D): NOSTZ rats, made diabetic by injection of steptozotocin on the day of birth (Portha et al.; 1974), are treated, orally, daily by administration of 50-100-200 mg/kg of body weight of compound 15, of 200 mg/kg of metformin (reference antidiabetic agent) or of methylcellulose (controls). Blood samples are taken from the anaesthetized animal two hours after the fourth treatment. The glycaemia is measured via the colorimetric method using glucose dehydrogenase. The antidiabetic activity of the compounds of the formula (I) orally was determined on an experimental model of non-insulin-dependent diabetes, induced in rats with steptozotocin. The model of non-insulin-dependent diabetes is obtained in the rats by means of a neonatal injection of steptozotocin. The diabetic rats used are eight weeks old. The animals are housed, from the day of birth to the day of the experiment, in an animal house at a regulated temperature of 21 to 22° C. and subjected to a fixed cycle of light (from 7 a.m. to 7 p.m.) and darkness (from 7 p.m. to 7 a.m.). Their food consisted of a maintenance diet, and water and food were given “ad libitum”, with the exception of fasting two hours before the tests, during which period the food is removed (post-absorptive state). The rats are treated orally for one (D1) or four (D4) days with the test product. Two hours after the final administration of the product and 30 minutes after anaesthetizing the animals with pentobarbital sodium (Nembutal®), a 300 μl blood sample is taken from the end of the tail.

[2] = test system: insulin secretion; assay: Test of insulin secretion according to Endocrinology, 1992 vol. 130 (1) pp. 167-178; format: cell-based; details: Rattus norvegicus, INS1; compounds tested at 10^−5 M; read-out: SEC INS1 (% of insulin secretion)
Protocol: Test of Insulin Secretion According to the Method Described in Endocrinology, 1992 vol. 130 (1) pp. 167-178
The insulin-secreting activities are collated in Table B. The compounds according to the invention were tested at a concentration of 10^−5 M.

[3] = test system: isolated islets of Langerhans; assay: Insulin secretion in isolated rat islets of Langerhans, static incubation, RIA; format: cell-based; details: 90 minutes incubation, stimulation if factor >= 130%; for Insulin secretion stimulation factor, Product + G2.8 mM: glucose 2.8 mM; for Insulin secretion stimulation factor, Product + G8 mM: glucose 8 mM
Protocol: Study of the Activity on Isolated Rat Islets
Effect of the chemical compounds on insulin secretion as a function of the glucose concentration, in vitro, in isolated islets of Langerhans in static incubation (Table C):
The islets of Langerhans obtained by digestion of exocrine pancreatic tissue with collagenase, and then purified on Ficoll gradient, are incubated for 90 minutes in the presence of two concentrations of glucose, (2.8 mM or 8 mM), in the presence or absence of the chemical compound. The insulin secretion is assayed by RIA in the incubation medium.
The potential of the various chemical compounds to stimulate insulin secretion is estimated by calculating the stimulation factor*.
A compound stimulates the secretion of insulin if this factor is greater than or equal to 130% for a given dose of glucose. [formula] • where: • G=secretion of insulin (pmol/min. islet) in the presence of glucose alone
G+product=secretion of insulin (pmol/min. islet) in the presence of the same concentration of glucose and of the test chemical compound.

SMILES | activity at 10 µM [2] [%] | also measured
CN(C)C(=N)N=C(N)N [metformin, reference compound] |  | Percentage of variation of glycaemia relative to the controls ([1]; 200 mg/kg/day orally): −29%**
N#Cc1ccc(C(=O)c2sc3ccccc3c2OCc2ccccc2C#N)cc1 [Product 42] | 283 | 
COc1ccc(C(=O)COc2c(C(=O)c3ccccc3)sc3ccccc23)c(OC)c1 [Product 14] | 287 | 
N#Cc1ccc(C(=O)c2sc3ccccc3c2OCc2ccccc2)cc1 [Product 59] | 229 | 
N#Cc1ccc(C(=O)c2sc3ccccc3c2OCc2c(Cl)cccc2Cl)cc1 [Product 55] | 174 | 
CC(C)(C)C(=O)COc1c(C(=O)c2ccccc2)sc2ccccc12 [Product 15, 1-(2-benzoylbenzo[b]thiophen-3-yloxy)-3,3-dimethylbutan-2-one] | 207 | Percentage of variation of glycaemia relative to the controls ([1]; 50 mg/kg/day orally): −13%*; Percentage of variation of glycaemia relative to the controls ([1]; 100 mg/kg/day orally): −23%**; Percentage of variation of glycaemia relative to the controls ([1]; 200 mg/kg/day orally): −18%**; Insulin secretion stimulation factor, Product + G2.8 mM ([3]; product 10^−5 M): 119%; Insulin secretion stimulation factor, Product + G8 mM ([3]; product 10^−5 M): 152%; Insulin secretion stimulation factor, Product + G2.8 mM ([3]; product 10^−6 M): 125%; Insulin secretion stimulation factor, Product + G8 mM ([3]; product 10^−6 M): 183%
CS(=O)(=O)c1ccc(COc2c(C(=O)c3ccc(C#N)cc3)sc3ccccc23)cc1 [Product 66] | 202 | 
COc1ccccc1C(=O)COc1c(C(=O)c2ccccc2)sc2ccccc12 [Product 3] | 244 | 
O=C(COc1c(C(=O)c2ccccc2)sc2ccccc12)c1ccc(Cl)cc1 [Product 1] | 206 | Insulin secretion stimulation factor, Product + G2.8 mM ([3]; product 10^−5 M): 98%; Insulin secretion stimulation factor, Product + G8 mM ([3]; product 10^−5 M): 135%
COc1cccc(C(=O)COc2c(C(=O)c3ccccc3)sc3ccccc23)c1 [Product 8] | 193 | 
COc1ccccc1C(=O)COc1c(C(=O)c2ccc(C#N)cc2)sc2ccccc12 [Product 70] | 189 | 
Cc1ccc(C(=O)COc2c(C(=O)c3ccc(C#N)cc3)sc3ccccc23)cc1 [Product 72] | 185 | 
N#Cc1ccc(C(=O)c2sc3ccccc3c2OCc2cccc(C#N)c2)cc1 [Product 43] | 257 | Insulin secretion stimulation factor, Product + G2.8 mM ([3]; product 10^−5 M): 108%; Insulin secretion stimulation factor, Product + G8 mM ([3]; product 10^−5 M): 135%
COc1ccccc1C(=O)COc1c(C(=O)c2ccccc2)oc2ccccc12 [Product 86] | 164 | 
N#Cc1ccc(C(=O)c2sc3ccccc3c2OCC(=O)c2ccccc2)cc1 [Product 69] | 179 | 

From US20070066680A1, “Benzofurans and benzothiophenes” (priority 2003, published 2007)
